The values below come from patent US7741346B2, “Angiogenesis inhibitor” (Santen Pharmaceutical Co., Ltd., priority 2001, dated 2010).

Data set [1] relates to normal human umbilical vein endotherial cells (HUVEC). The data set can be described thus: VEGF-induced HUVEC proliferation (in vitro angiogenesis inhibition test). The class given is cell-based. To be noted: 10 μM test compound, 10 ng/ml VEGF, three days after adding VEGF, WST-8 absorbance at 450 nm; for Inhibitory rate (%) (cell growth inhibitory rate to the control): 10 µM; for inhibition at 10 µM: Homo sapiens, HUVEC, 72 h, read-out: Inhibitory rate (%) (cell growth inhibitory rate to the control). On the procedure: (1) Angiogenesis Inhibition Tests Using Human Endothelial Cells
The effects of the present compounds on the in vitro angiogenesis were evaluated by using vascular endothelial growth factor (VEGF)-induced normal human umbilical vein endotherial cells (HUVEC) proliferation system (Cancer Res., 59, 99-106 (1999)), wherein inhibitory effects of drugs on cell growth reactions induced by treating HUVEC with VEGF as an in vitro angiogenesis evaluation model.
The present compound was dissolved in DMSO and then diluted with a medium to prepare 40 μM test compound solution.
2×10^3 cells/well of HUVEC was seeded onto a type I collagen coated 96-well plate. After one day, 25 μl of the 40 μM test compound solution and a 0.8% DMSO solution as a control were added to each well (final concentration; 10 μM of the test compound and 0.2% of DMSO). One hour after adding the test compound, 25 μl of 40 ng/ml VEGF solution was added to each well(final concentration; 10 ng/ml of VEGF). Three days after adding VEGF, a WST-8 assay reagent (manufactured by Dojin Chemical Co., Ltd.) was added to each well in an amount of 10 μl, and absorbance at 450 nm was measured.
Calculating cell growth inhibitory rates (%) to the control, angiogenesis inhibitory rates of almost all of the test compounds were 80% or higher.
For orientation: Tetrazolium assays rely on reduction of a dye to a coloured formazan, in cell work by metabolically active cells.

`CC(CNC(=O)N(CCN(C)C(=O)OC(C)(C)C)CCC12CC3CC(CC(C3)C1)C2)Cc1ccncc1` (single isomer, unassigned; (+)) [Compound No. 1-139, (+)-1-[2-(1-Adamantyl)ethyl]-1-[2-[N-(t-butoxycarbonyl)-N-methylamino]ethyl]-3-[2-methyl-3-(4-pyridyl)propyl]urea] returned a melting point of 122.7 to 123.7 °C. The “Inhibitory rate (%) (cell growth inhibitory rate to the control)” value in data set [1] came out at 83.1%.

For the compound `CCCCCN(CCC12CC3CC(CC(C3)C1)C2)C(=O)NCC(C)Cc1ccncc1` (single isomer, unassigned; (-)) [Compound No. 1-120, (−)-1-[2-(1-Adamantyl)ethyl]-3-[2-methyl-3-(4-pyridyl)propyl]-1-pentylurea], the inhibition at 10 µM in data set [1] was 83.1%.

Regarding `CCCCCN(CCC12CC3CC(CC(C3)C1)C2)C(=O)NCCCc1ccncc1` [Compound No. 1-1, 1-[2-(1-Adamantyl)ethyl]-1-pentyl-3-[3-(4-pyridyl)propyl]urea], in data set [1], the inhibition at 10 µM turned out to be 83.4%.

In turn, `O=C(NCCCc1ccncc1)N(CCC(F)(F)F)CCC12CC3CC(CC(C3)C1)C2` [Compound No. 1-24, 1-[2-(1-Adamantyl)ethyl]-3-[3-(4-pyridyl)propyl]-1-(3,3,3-trifluoropropyl)urea] came in with a melting point of 107.5 to 109 °C. In addition, the inhibition at 10 µM in data set [1] turned out to be 82.1%.

As for `CC=CCN(CCC12CC3CC(CC(C3)C1)C2)C(=O)NCCCc1ccncc1` [Compound No. 1-25, 1-[2-(1-Adamantyl)ethyl]-1-(2-butenyl)-3-[3-(4-pyridyl)propyl]urea], the melting point is 89.5 to 93.5 °C. The inhibition at 10 µM in data set [1] came to 83.2%.

In the case of `CN(CCN(CCC12CC3CC(CC(C3)C1)C2)C(=O)NCCCc1ccncc1)C(=O)OC(C)(C)C` [Compound No. 1-26, 1-[2-(1-Adamantyl)ethyl]-[2-[N-(t-butoxycarbonyl)-N-methylamino]ethyl]-3-[3-(4-pyridyl)propyl]urea], the inhibition at 10 µM in data set [1] was found to be 79.2%.

Consider `CCCN(CCCC12CC3CC(CC(C3)C1)C2)C(=O)NCCCc1ccncc1` [Compound No. 1-35, 1-[3-(1-Adamantyl)propyl]-1-propyl-3-[3-(4-pyridyl)propyl]urea], for which, in data set [1], the inhibition at 10 µM came to 83.7%.

As to `CCCCCN(CCC12CC3CC(CC(C3)C1)C2)C(=O)NCC(C)Cc1ccncc1` (stereo not shown) [Compound No. 1-100, 1-[2-(1-Adamantyl)ethyl]-3-[2-methyl-3-(4-pyridyl)propyl]-1-pentylurea], the “Inhibitory rate (%) (cell growth inhibitory rate to the control)” value in data set [1] is 83.0%.

`CC(CNC(=O)N(CCN(C)C(=O)OC(C)(C)C)CCC12CC3CC(CC(C3)C1)C2)Cc1ccncc1` (stereo not shown) [Compound No. 1-107]: the inhibition at 10 µM in data set [1] came out at 83.2%.

In the case of `CCCCCN(CCC12CC3CC(CC(C3)C1)C2)C(=O)NC/C=C\c1ccncc1` [Compound No. 1-111, (Z)-1-[2-(1-Adamantyl)ethyl]-1-pentyl-3-[3-(4-pyridyl)-2-propenyl]urea], in data set [1], the inhibition at 10 µM is 83.1%.

`CCCCCN(CCC12CC3CC(CC(C3)C1)C2)C(=O)NC/C=C/c1ccncc1` [Compound No. 1-112, (E)-1-[2-(1-Adamantyl)ethyl]-1-pentyl-3-[3-(4-pyridyl)-2-propenyl]urea]: the melting point is 90 to 118 °C. In addition, the inhibition at 10 µM in data set [1] came to 83.2%.

Consider `CCCCCN(CCC1CCCCC1)C(=O)NCC(C)Cc1ccncc1` (stereo not shown) [Compound No. 1-118, 1-(2-Cyclohexylethyl)-3-[2-methyl-3-(4-pyridyl)propyl]-1-pentylurea], for which the inhibition at 10 µM in data set [1] was found to be 81.6%.

`CCCCCN(CCC12CC3CC(CC(C3)C1)C2)C(=O)NC(C)CCc1ccncc1` (stereo not shown) [Compound No. 1-137, 1-[2-(1-Adamantyl)ethyl]-3-[1-methyl-3-(4-pyridyl)propyl]-1-pentylurea] returned a melting point of 128.5 to 129 °C. Also, in data set [1], the inhibition at 10 µM is 83.3%.

On to `CCCCCN(CCC12CC3CC(CC(C3)C1)C2)C(=O)CCCCc1ccncc1` [Compound No. 2-14, 5-(4-Pyridyl)valeric acid N-[2-(1-adamantyl)ethyl]-N-pentylamide], for which the inhibition at 10 µM in data set [1] came to 83.4%.

With `CCCCCN(CCC12CC3CC(CC(C3)C1)C2)C(=O)CCSCc1ccncc1` [Compound No. 2-15, 3-(4-Pyridylmethylthio)propionic acid N-[2-(1-adamantyl)ethyl]-N-pentylamide], the inhibition at 10 µM in data set [1] came out at 83.3%.

With `CCCCCN(CCC12CC3CC(CC(C3)C1)C2)C(=O)CSCCc1ccncc1` [Compound No. 2-18, 2-[2-(4-Pyridyl)ethylthio]acetic acid N-[2-(1-adamantyl)ethyl]-N-pentylamide], the inhibition at 10 µM in data set [1] was 82.2%.

For `CCCCCN(CCC12CC3CC(CC(C3)C1)C2)C(=O)CCCCCc1ccncc1` [Compound No. 2-20, 6-(4-Pyridyl)caproic acid N-[2-(1-adamantyl)ethyl]-N-pentylamide], the inhibition at 10 µM in data set [1] came out at 82.5%.

By melting point is commonly meant the temperature, or range, at which the solid turns liquid.
